Experiments:
[1] = Potentiometric titration of the free ligand (protonation constants); assay type: physicochemical
Description: As far as the ligand behavior in aqueous solutions is concerned, the speciation curves were obtained from the titration of an L-CH3 solution (0.1 mM in DMSO 5% (v/v)/H2O (HCl/KCl); initial pH = 2.7) by stepwise addition of NaOH 0.1 M. The distribution curves and the acid association constants were then calculated (Figure 1 and Table 1).
At low pH, L-CH3 has seven protic groups that can be deprotonated upon pH increase: besides the phenolic OH, two tertiary amines and four pyridines. From the titration, six logKa could be successfully obtained. The highest one, logKa = 9.75, is related to the phenolic group. The next constants are ascribed to the nitrogens of the tertiary amines and of the Pyr groups, although they are difficult to unambiguously correlate with a specific functional group. […] The potentiometric titration was carried out till pH 9.5 to avoid the precipitation of the ligand in the basic environment.
Potentiometric measurements were carried out using the Metrohm pH-meter system (Herisau, Switzerland) with a Metrohm semi-micro combination electrode at 25 °C, calibrated in a hydrogen ion concentration using HCl. The ligands were dissolved in DMSO (5% v/v/H2O (HCl/KCl)) in order to obtain a concentration of 1 mM. The titrant (KOH 0.1M) was added with a micrometric syringe at 298 K in the pH range of 2.5–11.5 in an argon atmosphere. The stability constants and stoichiometry of the complexes were calculated using the titration curves and the SUPERQUAD and HYPERQUAD [47, 48].

β-amyloid 1–40 peptide = molecular target: T1, β-amyloid 1–40 peptide (Homo sapiens, UniProt P05067); test: Thioflavin T (ThT) fluorescence aggregation assay; assay type: biochemical; details: [ThT] = 10 μM; [β-amyloid 1–40] = 10 μM; 10 μM test substance; PBS pH 7.4, 37 °C
T1 construct: β-Amyloid (1–40) was purchased from GenScript; purchased GenScript (Leiden, the Netherlands)
T1 sequence (P05067 672-711 limits assumed): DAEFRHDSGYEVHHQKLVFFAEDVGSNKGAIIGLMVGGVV
Description: To evaluate the anti-aggregation ability of the complexes, the β-amyloid 1–40 peptide was selected due to its higher solubility and slower aggregation rate compared to the full-length Aβ 1–42. Aggregation experiments were conducted using the Thioflavin T (ThT) fluorescence assay, which is a standard method to monitor amyloid aggregation. ThT binds specifically to amyloid fibrils, causing an increase in fluorescence intensity. If a complex inhibits peptide aggregation, the observed fluorescence increase will be lower compared to the reference, indicating inhibition.
In this experiment, the amyloid peptide was first dissolved in 1,1,1,3,3,3-hexafluoro-2-propanol (HFIP) to facilitate its unfolding. A 0.2 mM solution of the peptide was then prepared in 10 mM PBS (containing 100 mM NaCl, pH 7.4). To this solution, equimolar amounts of ThT (prepared in the same buffer) and the complex (dissolved in methanol) were added.
Aggregation test: ThT method
Amyloid peptides Aβ1-40 were used for this analysis. […]
• For the measurement, fluorescence spectra were recorded with a plate reader, using a Tecan […]
The fluorescence of sample solutions was monitored at 37° C over a period of about 30 hours, acquiring values every 20 minutes. The fluorescence variation of ThT was compared in the presence/ absence of amyloid/ ligands/ complexes.

[2] = overall protonation constant, DMSO 5% (v/v)/H2O (HCl/KCl), 25 °C

Cc1cc(CN(Cc2ccccn2)Cc2ccccn2)c(O)c(CN(Cc2ccccn2)Cc2ccccn2)c1 [HL-CH3, 2,6-bis[(bis(2-pyridylmethyl)amino)methyl]-4-methylphenol]
logβi, L^− + 2H^+ ⇌ [H2L]^+ [1, 2]: 16.57 ± 0.01
logβi, L^− + 3H^+ ⇌ [H3L]^2+ [1, 2]: 21.56 ± 0.01
logβi, L^− + 4H^+ ⇌ [H4L]^3+ [1, 2]: 25.27 ± 0.01
logβi, L^− + 5H^+ ⇌ [H5L]^4+ [1, 2]: 27.83 ± 0.02
logβi, L^− + 6H^+ ⇌ [H6L]^5+ [1, 2]: 29.60 ± 0.11
logβi, L^− + H^+ ⇌ HL [1, 2]: 9.75 ± 0.01
logKa, HL + H^+ ⇌ [H2L]^+ ([1]; stepwise constant): 6.82
logKa, [H2L]^+ + H^+ ⇌ [H3L]^2+ ([1]; stepwise constant): 4.99
logKa, [H3L]^2+ + H^+ ⇌ [H4L]^3+ ([1]; stepwise constant): 3.71
logKa, [H4L]^3+ + H^+ ⇌ [H5L]^4+ ([1]; stepwise constant): 2.56
logKa, [H5L]^4+ + H^+ ⇌ [H6L]^5+ ([1]; stepwise constant): 1.77
logKa, L + H^+ ⇌ HL ([1]; stepwise constant, phenolic group): 9.75
inhibition of Aβ 1–40 aggregation (ThT fluorescence) (β-amyloid 1–40 peptide): moderate inhibition

Source: paper PMC11643690, “Chelating Properties of N6O-Donors Toward Cu(II) Ions: Speciation in Aqueous Environments and Catalytic Activity of the Dinuclear Complexes” (Molecules, 2024)
